The values that follow come from ChEMBL document CHEMBL5678811 (Invest New Drugs, 2014).

Activity calls are given as the source filed them. The calls are words filed in the database; no cut-off is given here. Some results are limits rather than exact numbers.

Data set [1] concerns COLO 205. Conditions: Mus musculus, CD1, dose 25-50 mg/kg, route po.
In data set [2] the target is Cyclin-dependent kinase 5/CDK5 activator 1 (Homo sapiens) (UniProt Q00535+Q15078). Conditions: Sf21, dose 200.0 nM.
Description: Inhibition of recombinant human full-length N-terminal His6-tagged cdk5/N-terminal GST-tagged p25 expressed in baculovirus infected Sf21 cells at 200 nM using histone H1 as substrate relative to control
For data set [3], the system named is MV4-11. Kind of data set: Cell cycle arrest in human MV4-11 cells assessed as accumulation of cells at G1-phase at 0.08 uM measured after 24 hrs by propidium iodide staining based flow cytometry (reference value: 61.42%). Format: functional. In general terms: A flow cytometer gives signals particle by particle.
Data set [4] concerns COLO 205. The conditions noted are these: Mus musculus, CD1, dose 25-50 mg/kg, route po. The source holds these as a separate data set.
Data set [5] is described as follows: Toxicity in human COLO 205 cells xenografted CD1 nu/nu mouse assessed as change in ileum histology at 50 mg/kg, po administered daily via gavage for 56 days and measured on day 41 to 69 by histopathological analysis. Format: organism-based. Conditions: in vivo, 1344 h, time 41-69 day. On the technique in general: A xenograft is tissue or cells of one species grown in another, often human tumour cells in immunodeficient mice.

Data set [6] relates to COLO 205. The conditions noted are these: Mus musculus, CD1, dose 25-50 mg/kg, route po. The source holds these as a separate data set.
Data set [7] has as its target High affinity nerve growth factor receptor (Homo sapiens) (UniProt P04629). Conditions: Sf21, dose 200.0 nM.
The subject of data set [8] is COLO 205. Conditions: Mus musculus, CD1, dose 50.0 mg/kg, route po.
For data set [9], the target named is T1, Serine/threonine-protein kinase 17A (Homo sapiens) (UniProt Q9UEE5).
T1 sequence (whole entry): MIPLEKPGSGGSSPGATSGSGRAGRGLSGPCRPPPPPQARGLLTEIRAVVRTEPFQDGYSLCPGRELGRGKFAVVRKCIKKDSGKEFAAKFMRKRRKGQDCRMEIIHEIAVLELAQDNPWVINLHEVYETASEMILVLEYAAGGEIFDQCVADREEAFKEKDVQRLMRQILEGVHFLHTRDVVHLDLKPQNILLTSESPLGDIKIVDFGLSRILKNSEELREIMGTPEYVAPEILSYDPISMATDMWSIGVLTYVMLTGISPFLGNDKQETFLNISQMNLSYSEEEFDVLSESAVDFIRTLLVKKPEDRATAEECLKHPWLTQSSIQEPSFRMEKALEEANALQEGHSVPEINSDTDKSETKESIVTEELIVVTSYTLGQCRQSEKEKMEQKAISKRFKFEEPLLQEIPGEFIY
The conditions noted are these: Sf21, dose 200.0 nM.
Description: Inhibition of recombinant human full-length N-terminal 6His-tagged DRAK1 expressed in baculovirus infected Sf21 cells at 200 nM using ZIPtide as substrate relative to control

The subject of data set [10] is MDA-MB-231. Kind of data set: Cell cycle arrest in human MDA-MB-231 cells assessed as accumulation of cells at S-phase at 2.5 uM measured after 24 hrs by propidium iodide staining based flow cytometry (reference value: 38.27%). Format: functional.
Data set [11] in a line: Toxicity in human COLO 205 cells xenografted CD1 nu/nu mouse assessed as decrease in lymphocyte count at 50 mg/kg, po administered daily via gavage for 2 cycles of 3 weeks on/1 week rest and measured on day 41 to 69 by hematological analysis. Type of data set: organism-based. The conditions noted are these: in vivo, time 41-69 day.
The subject of data set [12] is COLO 205. The conditions noted are these: Mus musculus, CD1, dose 50.0 mg/kg, route po. The source holds these as a separate data set.
Data set [13] deals with MV4-11. Nature of the data set: Cell cycle arrest in human MV4-11 cells assessed as accumulation of cells at G2/M-phase at 0.32 uM measured after 24 hrs by propidium iodide staining based flow cytometry (reference value: 15.23%). Type of data set: functional.
In data set [14] the test system is COLO 205. The conditions noted are these: Mus musculus, CD1, dose 100.0 mg/kg, route po, time 21.0 day.

Sequence of High affinity nerve growth factor receptor (Homo sapiens) (P04629 33-796 limits assumed): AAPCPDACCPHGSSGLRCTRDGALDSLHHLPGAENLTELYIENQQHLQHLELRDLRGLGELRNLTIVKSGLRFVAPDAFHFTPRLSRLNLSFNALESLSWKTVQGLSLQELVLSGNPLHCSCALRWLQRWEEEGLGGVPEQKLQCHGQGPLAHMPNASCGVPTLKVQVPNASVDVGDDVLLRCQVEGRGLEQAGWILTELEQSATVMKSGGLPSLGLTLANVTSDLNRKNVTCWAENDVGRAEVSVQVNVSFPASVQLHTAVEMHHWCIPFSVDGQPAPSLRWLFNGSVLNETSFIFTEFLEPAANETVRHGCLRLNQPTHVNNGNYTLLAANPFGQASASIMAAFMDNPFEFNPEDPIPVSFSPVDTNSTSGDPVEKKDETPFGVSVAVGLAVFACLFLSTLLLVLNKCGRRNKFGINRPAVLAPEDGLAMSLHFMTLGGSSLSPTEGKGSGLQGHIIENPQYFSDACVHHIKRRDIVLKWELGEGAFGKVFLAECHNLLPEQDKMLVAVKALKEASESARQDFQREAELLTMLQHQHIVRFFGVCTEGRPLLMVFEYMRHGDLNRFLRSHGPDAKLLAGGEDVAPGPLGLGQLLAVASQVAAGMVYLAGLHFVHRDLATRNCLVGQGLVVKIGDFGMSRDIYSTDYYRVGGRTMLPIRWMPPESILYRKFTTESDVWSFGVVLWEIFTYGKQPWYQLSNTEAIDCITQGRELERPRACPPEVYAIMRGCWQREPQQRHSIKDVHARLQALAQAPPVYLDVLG
Sequence of Cyclin-dependent kinase 5/CDK5 activator 1 (Homo sapiens) (Q00535 whole entry): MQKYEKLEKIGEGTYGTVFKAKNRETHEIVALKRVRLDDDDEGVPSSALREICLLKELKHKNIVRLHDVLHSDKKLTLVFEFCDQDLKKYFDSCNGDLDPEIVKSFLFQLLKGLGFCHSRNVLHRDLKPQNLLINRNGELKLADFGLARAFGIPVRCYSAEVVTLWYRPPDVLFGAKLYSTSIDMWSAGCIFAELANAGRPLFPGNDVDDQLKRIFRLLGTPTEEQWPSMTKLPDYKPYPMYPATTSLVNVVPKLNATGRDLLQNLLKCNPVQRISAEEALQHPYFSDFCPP
Sequence of Cyclin-dependent kinase 5/CDK5 activator 1 (Homo sapiens) (Q15078 99-307 partner limits assumed): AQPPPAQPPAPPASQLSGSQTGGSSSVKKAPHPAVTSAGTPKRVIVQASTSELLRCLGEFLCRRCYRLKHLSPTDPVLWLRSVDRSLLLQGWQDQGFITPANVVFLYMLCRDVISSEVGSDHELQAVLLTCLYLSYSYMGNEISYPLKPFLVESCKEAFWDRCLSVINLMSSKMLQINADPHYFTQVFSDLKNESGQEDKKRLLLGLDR

As usually defined, the inhibition is the change of the read-out against control, counted positive when it falls. As for `CCN1CCN(Cc2ccc(Nc3ncc(F)c(-c4cc(F)c5nc(C)n(C(C)C)c5c4)n3)nc2)CC1` [ABEMACICLIB], the inhibition result in [1] is “Dose-Dependent Effect”; in [2], greater than 90%; in data set [4] it was “Dose-Dependent Effect”; in data set [6], “Dose-Dependent Effect”; in [7], greater than 90%; in data set [9], greater than 90%. Moreover, the Activity in [3] is on record as 89.44%; in data set [5] it was “Non-Toxic”; in data set [10], 8.19%; in data set [11], “Non-Toxic”; in data set [13], 1.82%. In addition, the inhibition result in [8], in data set [12] and in data set [14] was “Active” in each case.
